Assay results reported in the SangsterLogP compilation.

Legend:
[1] = method code SF-AS, from PMID: 3774812; conditions: pH 4.0
[2] = method code SF-AS, from DOI: 10.1021/jf60217a021, PMID: 659709
[3] = method code SF-AS, from DOI: 10.1021/jf60167a006
[4] = method code SF-CR+AS, from Korenman, I.; Lineva, S.; Gezikova, N. (1978). Extraction of naphthol-sulfonic acids from aqueous solution. Zh. Prikl. Khim., 51(4)869-871.
[5] = method code SF, from DOI: 10.1248/cpb.18.708; conditions: pH 6.4
[6] = method code SF-AS, from DOI: 10.1021/jm00212a022, PMID: 836502
[7] = method code SF-AS, from DOI: 10.1016/0039-9140(66)80126-1, PMID: 18959847; conditions: pH 7.5
[8] = not given; remark: listed apart in the source
[9] = pH 4.3
[10] = from Tehrany, E.A.; Desobry, S. (2005). Comparison between the different calculation methods of partition coefficient of aroma compounds with a difference chemical classes in octanol/water system. …
[11] = not given; remark: listed apart in the source
[12] = not given; remark: listed apart in the source
[13] = method code SF, from PMID: 7429676; conditions: pH 7.4
[14] = not given; remark: listed apart in the source
[15] = method code SF-AS, from DOI: 10.1139/y89-042, PMID: 2547502; conditions: pH 7.4
[16] = not given; remark: listed apart in the source
[17] = not given; remark: listed apart in the source
[18] = method code SF-AS, from Korenman, Y.; Pazynin, T. (1972). Distribution of nitrosonaphthols between organic solvents and water. J. anal. chem. USSR, 27(4)723-725.; conditions: pH 2.0
[19] = method code SF-GLC, from DOI: 10.1016/0045-6535(95)00311-u
[20] = method code SF-AS, from DOI: 10.1021/jf60220a002
[21] = from Villegas-Navarro, A.; Rodriguez, M. (1984). Structure-activity relationships between quinone moieties and inhibition of sodium transport. In Kuchar, M. (Ed.) QSAR in Design of Bioactive Compounds. …
[22] = not given; remark: listed apart in the source
[23] = method code …, from Kristl, A.; Vesnaver, G.; Mrhar, A.; Kozjek, F. (1993). Evaluation of partitioning and solubility data for some guanine derivatives in terms of mutual miscibility of octanol and water phase. …; conditions: pH 5.2
[24] = method code SF, from PMID: 23342302; conditions: pH 7.4
[25] = not given; remark: listed apart in the source
[26] = not given; remark: listed apart in the source
[27] = not given; remark: listed apart in the source
[28] = not given; remark: listed apart in the source
[29] = method code SF-CR, from PMID: 15170; conditions: pH 3.0
[30] = method code SF, from DOI: 10.1248/cpb.42.1525, PMID: 7923475
[31] = method code SF, from Korenman, I.; Polumestnaya, I. (1982). Principles of interfacial distribution of certain substituted naphthalenes. Zh. Prikl. Khim., 55(2)364-367.
[32] = method code SF-AS, from DOI: 10.1016/0006-2952(80)90068-4, PMID: 6775639
[33] = method code SF-HPLC, from DOI: 10.1124/dmd.30.12.1497, PMID: 12433825; conditions: pH 7.4
[34] = method code SF-AS, from DOI: 10.1016/s0090-9556(25)07961-9, PMID: 6130927
[35] = method code SF-CR+AS, from Korenman, I.; Tishchenko, M.; Kombarova, A. (1977). Distribution of dihydroxynaphthalenes between higher alcohols and water. Zh. Prikl. Khim., 50(4)899-901.; conditions: pH 2.0
[36] = method code SF-AS, from Brown, J.; Yu, N.; Cory, M.; Bicknell, R.; Taylor, D. (1978). In vivo evaluation of the radiosensitizing and cytotoxic properties of newly synthesized electron-affinic drugs. 3, 206-211.
[37] = method code SF-GLC, from DOI: 10.1007/s002679900238, PMID: 10486045
[38] = method code SF, from PMID: 3261785
[39] = method code SF-AS, from DOI: 10.1021/jm00128a017, PMID: 2754702; conditions: pH 7.4
[40] = method code SF, from DOI: 10.1016/0378-5173(90)90261-2; conditions: pH 3.0
[41] = method code SF-AS, from DOI: 10.1016/j.bmc.2011.10.017, PMID: 22094277; conditions: pH 7.4
[42] = method code SF-RC, from DOI: 10.1021/jm00360a016, PMID: 6854590
[43] = method code SF-HPLC, from DOI: 10.1016/0378-5173(84)90193-5; conditions: pH 4.0
[44] = method code SF-AS, from DOI: 10.1080/10826079508009280; conditions: pH 7.0
[45] = method code SF-HPLC, from DOI: 10.1002/hlca.19880710534; conditions: pH 7.4
[46] = method code SF-AS, from DOI: 10.1081/jlc-100101494
[47] = method code SF-RC, from DOI: 10.1016/j.nucmedbio.2014.03.023, PMID: 24768149; conditions: pH 7.4
[48] = not given; remark: listed apart in the source
[49] = method code SF-AS, from DOI: 10.1081/jlc-100100410; conditions: pH 4.0

**Q.** With `Nc1ccc([N+](=O)[O-])c2ccccc12` as the compound, how does the logP read?
**A.** Its logP is 1.77.

**Q.** For `Cc1c(CC(=O)O)sc2ccc(Cl)cc12`, which logD [1] is on record?
**A.** The logD was 3.12.

**Q.** Which logP [2] does the source give for `COC(=O)N(C)SN(C)C(=O)O/N=C(\SC)C(=O)N(C)C` here?
**A.** The logP was -0.07.

**Q.** For `CCOP(=S)(OCC)Oc1ccccc1`, which logP [3] is on record?
**A.** The logP was 3.46.

**Q.** Which logP [4] does the source give for `O=S(=O)(O)c1cccc2c(O)cccc12` here?
**A.** Its logP is -0.17.

**Q.** For `COc1ccc(NS(=O)(=O)c2ccc(N)cc2)nn1`, which logD [5] is on record?
**A.** Its logD is 0.4.

**Q.** For `CCCOc1cc(N)ccc1C(=O)O`, which logP [6] is on record?
**A.** Its logP is 1.53.

**Q.** With `Cc1ccc2cccc(O)c2n1` as the compound, how does the logD [7] read?
**A.** The logD was 2.33.

**Q.** With `O=c1[nH]c(-c2ccccc2)nc2nn[nH]c12` as the compound, how does the logP [8] read?
**A.** Its logP is 1.27.

**Q.** Which logD [9] does the source give for `Nc1ccc(S(=O)(=O)Nc2ncccn2)cc1` here?
**A.** The logD was -0.04.

**Q.** With `CCCCCCCCCC(=O)O` as the compound, how does the logP [10] read?
**A.** Its logP is 3.91.

**Q.** Which logP [11] does the source give for `Cc1cn([C@H]2O[C@@H](CO)[C@H](O)[C@H]2F)c(=O)[nH]c1=O` here?
**A.** Its logP is -0.51.

**Q.** With `CCC1(CC(C)C)C(=O)NC(=O)NC1=O` as the compound, how does the logP [12] read?
**A.** Its logP is 1.69.

**Q.** For `CC(O)Cn1cnc2c1c(=O)n(C)c(=O)n2C` (stereo not given), which logD [13] is on record?
**A.** The logD was -0.77.

**Q.** For `NC12CC3CC(CC(C3)C1)C2`, which logP [14] is on record?
**A.** Its logP is 2.54.

**Q.** For `Nc1ncnc2c1nc(Br)n2[C@@H]1O[C@@H]2COP(=O)(O)O[C@H]2[C@H]1O`, which logD [15] is on record?
**A.** The logD was -2.44.

**Q.** With `C=C(C)C(=O)OC1CCCCC1` as the compound, how does the logP [16] read?
**A.** Its logP is 2.98.

**Q.** Which logP [17] does the source give for `CN(C)/N=N/c1ccc(CC(=O)O)cc1` here?
**A.** Its logP is 1.38.

**Q.** With `O=Nc1c(O)ccc2ccccc12` as the compound, how does the logD [18] read?
**A.** Its logD is 2.28.

**Q.** With `CCCCCCCCC(Cl)C(Cl)(Cl)Cl` (stereo not given) as the compound, how does the logP [19] read?
**A.** Its logP is 5.93.

**Q.** Which logP [20] does the source give for `CCOP(N)(=O)O/N=C(/C#N)c1ccccc1` (stereo not given) here?
**A.** Its logP is 0.72.

**Q.** With `CC1=CC(=O)C(C(C)C)=CC1=O` as the compound, how does the logP [21] read?
**A.** Its logP is 2.2.

**Q.** With `C1COCCOCCOCCOCCO1` as the compound, how does the logP [22] read?
**A.** Its logP is -0.48.

**Q.** For `CC(=O)Nc1nc2c(ncn2COCCO)c(=O)[nH]1`, which logD [23] is on record?
**A.** Its logD is -1.3.

**Q.** Which logD [24] does the source give for `Nc1nc(=O)c2ncn(CCC(CO)CF)c2[nH]1` (stereo not given) here?
**A.** Its logD is -0.87.

**Q.** For `CCNc1nc(NC(C)(C)C)nc(SC)n1`, which logP [25] is on record?
**A.** The logP was 3.43.

**Q.** Which logP [26] does the source give for `OC[C@@H]1C[C@@H](F)[C@H](n2cnc3c(F)ncnc32)O1` here?
**A.** Its logP is 0.06.

**Q.** With `CC(=O)Nc1ccc(OC(=O)CBr)cc1` as the compound, how does the logP [27] read?
**A.** The logP was 1.08.

**Q.** With `O=C(O)CNC(=O)OCc1ccccc1` as the compound, how does the logP [28] read?
**A.** The logP was 1.47.

**Q.** For `CCc1nnc(NS(=O)(=O)c2ccc(N)cc2)s1`, which logD [29] is on record?
**A.** The logD was 1.01.

**Q.** For `CCCC(=O)c1ccccc1`, which logP [30] is on record?
**A.** The logP was 2.66.

**Q.** Which logP [31] does the source give for `O=S(=O)(O)c1cc(O)c2ccccc2c1` here?
**A.** The logP was -0.18.

**Q.** Which logP [32] does the source give for `CC1=CC(=O)c2ccccc2C1=O` here?
**A.** The logP was 1.88.

**Q.** For `CN1C(=O)CC(c2ccccc2)C1=O` (stereo not given), which logD [33] is on record?
**A.** The logD was 0.68.

**Q.** With `CCC(N)Cc1ccccc1` (stereo not given) as the compound, how does the logP [34] read?
**A.** Its logP is 2.28.

**Q.** For `Oc1cc(O)c2ccccc2c1`, which logD [35] is on record?
**A.** Its logD is 1.97.

**Q.** With `CC(=O)OCC(Cn1ccnc1[N+](=O)[O-])OC(C)=O` (stereo not given) as the compound, how does the logP [36] read?
**A.** Its logP is -0.05.

**Q.** Which logP [37] does the source give for `C=C(C)C1CCC(C)(O)C1C` (stereo not given) here?
**A.** The logP was 2.87.

**Q.** With `Cc1c(I)c(=O)n(-c2ccccc2)n1C` as the compound, how does the logP [38] read?
**A.** Its logP is 1.27.

**Q.** Which logD [39] does the source give for `Nc1nc2c(ncn2C2CC(O)C(CO)O2)c(=O)[nH]1` (stereo not given) here?
**A.** Its logD is -1.3.

**Q.** Which logD [40] does the source give for `O=C(O)CCCc1ccccc1` here?
**A.** The logD was 2.32.

**Q.** For `CCCOC(=O)[C@@]1(C)[C@H](CO)CC=[N+]1[O-]`, which logD [41] is on record?
**A.** The logD was -0.82.

**Q.** For `O=c1ccc2ccc3occc3c2o1`, which logP [42] is on record?
**A.** Its logP is 2.08.

**Q.** Which logD [43] does the source give for `O=c1[nH]cc(F)c(=O)n1Oc1ccccc1` here?
**A.** The logD was 0.8.

**Q.** With `Nc1nc(Cl)nc2c1ncn2[C@@H]1O[C@H](CO)[C@@H](O)[C@@H]1F` as the compound, how does the logD [44] read?
**A.** The logD was 0.5.

**Q.** With `C=CCC1(C(=O)NC(N)=O)CC(C)OC1=O` (stereo not given) as the compound, how does the logD [45] read?
**A.** The logD was 0.36.

**Q.** With `CC1(Br)C(=O)NC(=O)N2C3CC(N=[N+]=[N-])C(COC21)O3` (stereo not given) as the compound, how does the logP [46] read?
**A.** Its logP is 1.11.

**Q.** For `FCCOC1CCC=CCCC1` (stereo not given), which logD [47] is on record?
**A.** Its logD is 1.68.

**Q.** For `COc1ccc(NC(=O)C2CC2)cn1`, which logP [48] is on record?
**A.** The logP was 1.57.

**Q.** For `Nc1ccc(S(=O)(=O)Nc2ccc(Cl)nn2)cc1`, which logD [49] is on record?
**A.** The logD was 0.86.
